Experimental data published in patent publication US11053226B2, “KRAS G12C inhibitors and methods of using the same” (Amgen Inc., priority 2018, dated 2021).
Read-outs that look alike come from different tables or passages of the source.

How the values were obtained:
[1] = tested on: Phosphorylation of ERK1/2 in A549 cells; experiment: Phospho-ERK1/2 MSD Assay (A549); format: cell-based; conditions: Homo sapiens
[2] = tested on: Phosphorylation of ERK1/2 in MIA PaCa-2 cells; experiment: Phospho-ERK1/2 MSD Assay; format: cell-based; conditions: Homo sapiens, MiaPaCa-2 cells
[3] = biological target: GDP-bound KRAS protein (aa 1-169), containing both G12C and C118A amino acid substitutions (Homo sapiens (Human), UniProt P01116, C118A/G12C); experiment: Coupled Nucleotide Exchange Assay; format: biochemical
Chain of GDP-bound KRAS protein (aa 1-169), containing both G12C and C118A amino acid substitutions (P01116 other isoform, or with tags, fused parts or gaps G12C/C118A): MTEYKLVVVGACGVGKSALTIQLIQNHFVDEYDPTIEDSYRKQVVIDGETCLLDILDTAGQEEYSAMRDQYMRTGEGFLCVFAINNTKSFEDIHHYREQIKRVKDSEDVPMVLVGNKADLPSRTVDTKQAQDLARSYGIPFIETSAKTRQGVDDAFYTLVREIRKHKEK
Experimental: For compounds in Table 9, the following assay conditions were employed:
Coupled Nucleotide Exchange Assay:
The assay plates were then read on a PerkinElmer EnVision Multilabel Reader, using AlphaScreen® technology, and data were analyzed using a 4-parameter logistic model to calculate IC50 values.

[4] = A549, 4 h, read-out: pERK IC50 (4 h, A549), 4 h compound treatment
[5] = MIA PaCa-2, 4 h, read-out: pERK IC50 (4 h, MiaPaCa-2), 4 h compound treatment
[6] = read-out: Coupled Exchange IC50 (2 h), 2 h compound pre-incubation
[7] = read-out: Coupled Exchange IC50 (20 h), 20 h compound pre-incubation
[8] = read-out: pERK IC50 (4 h), 4 h compound treatment
[9] = MIA PaCa-2, read-out: pERK IC50 (4 h), 4 h compound treatment

SMILES | IC50 [1, 4] | IC50 [2, 5] | IC50 [3, 6] | IC50 [3, 7] | IC50 [1, 8] | IC50 [2, 9] | IC50 ([3]; read-out: Coupled Exchange IC50 (5 min), 5 min compound pre-incubation)
C=CC(=O)N1CC(NC(=O)Cn2cc(C(=O)NCCc3ccc(Cl)cc3Cl)c3cc(Cl)cc(Cl)c32)C1 [Example 178] | > 100 µM | > 100 µM | 0.63 µM | 0.22 µM |  |  | 
C=CC(=O)N1CC(NC(=O)Cn2c(C)c(C(=O)N3CCc4c(cccc4OC)C3)c3cc(Br)cc(C)c32)C1 [Example 2-1, 2-(5-Bromo-3-((5-methoxy-3,4-dihydro-2(1H)-isoquinolinyl)carbonyl)-2,7-dimethyl-1H-indol-1-yl)-N-(1-(2-propenoyl)-3-azetidinyl)acetamide] | > 100 µM | 0.3 µM | 0.11 µM | 0.11 µM |  |  | 
C=CC(=O)N1CC(NC(=O)Cn2c(C(=O)OC)c(I)c3cc(Br)ccc32)C1 [Example 111] |  |  | 1.98 µM | 0.35 µM | > 100 µM | 25.4 µM | 
C=CC(=O)N1CC(NC(=O)Cn2c(C)c(C(=O)N3CCc4c(C)cccc4C3)c3cc(Br)ccc32)C1 [Example 25] | > 100 µM | 2.47 µM | 0.54 µM | 0.09 µM |  |  | 
C=CC(=O)N1CC(NC(=O)Cn2cc(C(=O)N3CCc4c(cccc4OC)C3)c3cc(Cl)cc(Cl)c32)C1 [Example 69] | > 100 µM | 9.39 µM | 0.19 µM | 0.13 µM |  |  | 
C=CC(=O)N1CC(NC(=O)Cn2c(C3CC3)c(C(=O)N3CCOC4(CCC4)C3)c3cc(Cl)cc(C)c32)C1 [Example 1-6, 2-(5-Chloro-2-cyclopropyl-7-methyl-3-(5-oxa-8-azaspiro[3.5]nonan-8-ylcarbonyl)-1H-indol-1-yl)-N-(1-(2-propenoyl)-3-azetidinyl)acetamide] | > 100 µM | 0.67 µM | 0.72 µM |  |  |  | 
C=CC(=O)N1CC(NC(=O)Cn2c(C)c(-c3cccc4nc(C)ccc34)c3cc(Cl)ccc32)C1 [Example 101] |  |  | 1.11 µM |  | 56.8 µM | 20.3 µM | 
C=CC(=O)N1CC(NC(=O)Cn2cc(Cl)c3cc(Br)ccc32)C1 [Example 154] |  |  | 5.12 µM | 0.86 µM | > 100 µM | 52.1 µM | 56.2 µM
C=CC(=O)N1CC(NC(=O)Cn2cc(C(=O)NCCc3ccc(Cl)cc3Cl)c3cc(Br)ccc32)C1 [Example 161] | > 100 µM | 79.5 µM | 0.99 µM | 0.23 µM |  |  | 
C=CC(=O)N1CC(NC(=O)Cn2c(C)c(-c3ccccc3N(C)C)c3cc(Cl)ccc32)C1 [Example 98] |  |  | 1.12 µM |  | 13.2 µM | 18.2 µM | 
C=CC(=O)N1CC(NC(=O)Cn2cc(C(=O)N3CCc4c(C)cccc4C3)c3cc(Br)ccc32)C1 [Example 86] | > 100 µM | 14.1 µM | 0.68 µM | 0.17 µM |  |  | 
C=CC(=O)N1CC(NC(=O)Cn2c(C)c(C(=O)N3[C@H](C)c4ccc(F)cc4C[C@@H]3C)c3cc(Br)cc(C)c32)C1 [Example 9] | 41.6 µM | 1.56 µM | 0.2 µM |  |  |  | 
C=CC(=O)N1CC(NC(=O)Cn2c(C3CC3)c(C(=O)N3CCOC(C)(C)C3)c3cc(Cl)cc(C)c32)C1 [Example 23] | > 100 µM | 2.35 µM | 0.95 µM |  |  |  | 
C=CC(=O)N1CC(NC(=O)Cn2cc(-c3cccnc3OC(C)C)c3cc(Br)ccc32)C1 [Example 105] |  |  | 6.45 µM |  | 11.3 µM | 22 µM | 
C=CC(=O)N1CC(NC(=O)Cn2c(C)c(-c3cnccc3C3CC3)c3cc(Cl)ccc32)C1 [Example 18] |  |  | 0.97 µM |  | > 100 µM | 1.85 µM | 
